Data as given in US9126999B2, “Tetrahydropyrazolopyrimidine compounds” (EISAI R&D MANAGEMENT CO., LTD., priority 2012, dated 2015).
Entries after “also recorded” stand apart in the source; their conditions may differ.

Tests used:
[1] = system: DBA/1 mice; test: Pristane: DBA/1 strain lupus disease model; type: in vivo, mouse
Procedure: Figure Legend: Female DBA/1 mice at 10-11 weeks of age were given an intraperitoneal injection of 0.5 ml pristane or PBS. Once-a-day oral dosing with Vehicle (Veh; 0.5% methyl-cellulose) or 300 mg/kg ER-892887 was begun 3.5 months after pristane injection for a total of 3 months treatment. (A) Mice were euthanized after 3 months of compound treatment, and anti-dsDNA and anti-RiboP titers were measured in blood plasma samples by ELISA (statistical significance determined by Mann-Whitney test). (B) Arthritis development was assessed monthly by visual scoring. (C) The expression of IFN-regulated genes in whole blood was measured by a qPCR panel after 3 months of treatment, and an IFN gene signature score was calculated (see Pharmacology Materials and Methods section for details regarding IFN score calculation).
Figure Legend: Female DBA/1 mice at 11-12 weeks of age were given an intraperitoneal injection of 0.5 ml of pristane or PBS. Once-a-day oral dosing with Vehicle (Veh; 0.5% methyl-cellulose) or 33, 100, or 300 mg/kg ER-892887 was begun 2 months after pristane injection for a total of 3 months treatment. Mice were euthanized after 3 months of compound treatment, and anti-dsDNA (A), -RiboP (B), -Sm/nRNP (C), and -Histone (D) titers were measured in blood plasma samples by ELISA (statistical significance determined by Mann-Whitney test). (E) Summary of mortality observed in the study during 3 months of compound treatment. (F) The expression of IFN-regulated genes in whole blood was measured by a qPCR panel at the last time point for Vehicle and 300 mg/kg ER-892887 treated mice, and an IFN gene signature score was calculated (see Pharmacology Materials and Methods section for details regarding IFN score calculation).
Figure Legend: Female DBA/1 mice at 11 weeks of age were given an intraperitoneal injection of 0.5 ml pristane or PBS. Once-a-day oral dosing with Vehicle (Veh; 0.5% methyl-cellulose) or 300 mg/kg ER-892887, 100 mg/kg hydroxychloroquine, 1 mg/kg prednisolone or 100 mg/kg mycophenolate was begun 2 months after pristane injection and continued for 3 months of treatment. (A) At the end of the 3 month treatment arthritis development was assessed by visual scoring of swelling and inflammation. (B) Mice were euthanized after 3 months of compound treatment, and anti-dsDNA, anti-histone, anti-Sm/RNP and anti-RiboP titers were measured in blood plasma samples by ELISA (statistical significance determined by Mann-Whitney test). ELISA values falling above or below the range of the standard curve were assigned a value equal to the highest or lowest valid measurement, as appropriate. (C) The expression of IFN-regulated genes in whole blood was measured by a qPCR panel after 3 months of treatment. […] (D) IFN scores of genes regulated by pristane in this experiment are shown.
FIG. 14 presents the effect of compound ER-892887 on arthritis and autoantibodies in the Pristane: DBA/1 strain lupus disease model. Figure Legend: Female DBA/1 mice at 10 weeks of age were given an intraperitoneal injection of 0.5 ml pristane or PBS. At 22 weeks of age, mice were randomized into groups with equivalent median anti-dsDNA titers and treated with Vehicle (Veh; 0.5% methyl-cellulose) alone or 300 mg/kg ER-892887 once-a-day orally (QD PO). Arthritis symptoms (swelling and inflammation) were recorded monthly by blinded observers. All mice were sacrificed at 34 weeks of age (12 weeks of treatment) and blood plasma autoantibody titers were determined by ELISA. Prior to termination paws were x-rayed and scored for bone damage and erosions by two blinded analysts. (A) Top—Arthritis scores were calculated monthly in vehicle and compound dosed-groups. (A) Bottom—X-ray scores were calculated after three months of treatment. (B) Autoantibody titers were measured in terminal blood plasma samples by ELISA (statistical significance determined by Mann-Whitney test). […]

[2] = target: Human TLR4 (Homo sapiens, UniProt O00206); test: HEK-293 NF-kappaB luciferase reporter assay, LPS stimulus; type: cell-based; design: engineered to stably and individually express human TLR4, TLR7 or TLR9 full-length ORF cDNAs; expressed in transfected cells; host or cells: HEK-293 (ATCC) with ELAM-1 NF-kappaB luciferase reporter; conditions: ligand LPS, analyte NFkB-luciferase
Text: In vitro pharmacology: HEK-293 cells (ATCC) were engineered to stably express a NF-kappaB transcription factor inducible E-selectin (ELAM-1) luciferase reporter derived from the plasmid pGL3 (Promega) containing base pairs −2241 bp to −254 bp from the promoter of the human E-selectin gene (Accession No. NM_000450). These cells were then subsequently engineered to stably and individually express human TLR4, TLR7 or TLR9 full-length ORF cDNAs. Human TLR4 cDNA (Accession No. NM_138554) was cloned into pcDNA 3.0 expression vector (Invitrogen). TLR4 transfected cells were also engineered to express human MD-2 co-receptor [MD-2 cDNA (Accession No. NM_015364) was cloned into the pEF-BOS vector] and were supplemented with 10 nM soluble CD14 (R&D Systems) in the media to optimize LPS responsiveness. Human TLR9 cDNA (Accession No. NM_017442) was cloned into the pBluescript II KS vector (Agilent). Human TLR7 cDNA (Accession No. NM_016562) was obtained from OriGene. HEK-293 cells stably expressing human TLR8 (Accession No. NM_138636) or mouse TLR7 (Accession No. NM_133211) were purchased from InvivoGen and were then stably transfected with pNiFty2(NF-kappaB)-luciferase reporter plasmid (InvivoGen). […]

Human TLR4, sequence (O00206 24-839): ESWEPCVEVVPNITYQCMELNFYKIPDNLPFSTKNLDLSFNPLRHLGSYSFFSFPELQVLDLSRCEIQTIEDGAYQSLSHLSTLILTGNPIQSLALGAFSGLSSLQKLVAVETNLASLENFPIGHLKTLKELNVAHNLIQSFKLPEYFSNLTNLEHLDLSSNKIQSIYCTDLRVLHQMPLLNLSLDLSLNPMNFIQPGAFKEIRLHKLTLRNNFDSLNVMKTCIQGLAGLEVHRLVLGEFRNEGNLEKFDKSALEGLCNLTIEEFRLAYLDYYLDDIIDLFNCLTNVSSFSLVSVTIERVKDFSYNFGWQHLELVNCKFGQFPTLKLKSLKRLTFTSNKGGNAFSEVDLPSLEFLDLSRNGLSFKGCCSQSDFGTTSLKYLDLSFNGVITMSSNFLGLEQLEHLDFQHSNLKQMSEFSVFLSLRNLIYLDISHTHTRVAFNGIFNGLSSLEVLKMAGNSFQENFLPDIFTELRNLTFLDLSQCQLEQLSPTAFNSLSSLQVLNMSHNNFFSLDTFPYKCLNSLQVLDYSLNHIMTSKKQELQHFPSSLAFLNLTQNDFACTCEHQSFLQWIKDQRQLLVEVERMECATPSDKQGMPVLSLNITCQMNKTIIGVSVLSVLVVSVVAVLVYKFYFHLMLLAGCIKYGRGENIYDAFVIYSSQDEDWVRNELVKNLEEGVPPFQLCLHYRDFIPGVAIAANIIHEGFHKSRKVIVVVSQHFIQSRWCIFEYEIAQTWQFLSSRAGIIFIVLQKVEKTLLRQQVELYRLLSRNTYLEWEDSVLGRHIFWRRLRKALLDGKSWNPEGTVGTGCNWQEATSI
Human TLR4, sequence (Q9Y6Y9 19-160 partner): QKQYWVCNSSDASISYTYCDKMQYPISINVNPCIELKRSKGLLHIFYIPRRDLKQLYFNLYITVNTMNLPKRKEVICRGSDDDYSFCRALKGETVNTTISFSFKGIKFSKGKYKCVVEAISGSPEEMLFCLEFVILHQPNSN

**Q.** Which results are given for `COc1ccc([C@@H]2C[C@H](C(F)(F)F)n3nc(-c4ccc(C(=O)N5CCNCC5)cc4)cc3N2)cc1OC` [ER-892887, (4-((5S,7R)-5-(3,4-dimethoxyphenyl)-7-(trifluoromethyl)-4,5,6,7-tetrahydropyrazolo[1,5-a]pyrimidin-2-yl)phenyl)(piperazin-1-yl)methanone]?
**A.** IFN gene signature score [1]: reduction; RNA-related reactivity such as anti-RiboP titers [1]: particularly robust impact; arthritis severity [1]: reduced arthritis severity; interferon gene signature score, comparison with three commonly used lupus treatments [1]: suppressed the interferon gene signature score significantly; various auto-antibodies [1]: suppressed; suppression of autoantibodies compared with hydroxychloroquine or prednisolone ([1]; at the doses tested): better; whole blood interferon-driven gene expression ([1]; qPCR panel): reduction; also recorded: suppressed; IC50 [2]: > 10 µM
